In PubChem BioAssay AID1963848 (Molecular Pharmacology Branch, DTP, NCI, 2024):
pIC50: −log10 of the molar value.

Test system: 379773-124-R-J2-PDC spheroid viability
Test: Anticancer human tumor 379773-124-R-J2-PDC patient-derived endometrial carcinoma cell line growth inhibition [POLQ]
Conditions: spheroids with HUVEC and MSC; for pIC50: curve of first compound; for viability, T/C: stronger effect = lower value
Method in brief: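 Growth inhibition in 3D: complex spheroids (tumor PDC, HUVEC, MSC) treated with POLQ inhibitor combinations; where Cmax unknown, highest tested concentration 10 microM, except SN-38 at 1 microM.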

[1] = second compound 0.0316 µM, first compound 0.0316 µM
[2] = second compound 0.0316 µM, first compound 0.1 µM
[3] = second compound 0.0316 µM, first compound 0.316 µM
[4] = second compound 0.0316 µM, first compound 1 µM
[5] = second compound 0.0316 µM, first compound 3.16 µM
[6] = second compound 0.0316 µM, first compound 10 µM
[7] = second compound 0.1 µM, first compound 0.0316 µM
[8] = second compound 0.1 µM, first compound 0.1 µM
[9] = second compound 0.1 µM, first compound 0.316 µM
[10] = second compound 0.1 µM, first compound 1 µM
[11] = second compound 0.1 µM, first compound 3.16 µM
[12] = second compound 0.1 µM, first compound 10 µM
[13] = second compound 0.316 µM, first compound 0.0316 µM
[14] = second compound 0.316 µM, first compound 0.1 µM
[15] = second compound 0.316 µM, first compound 0.316 µM
[16] = second compound 0.316 µM, first compound 1 µM
[17] = second compound 0.316 µM, first compound 3.16 µM
[18] = second compound 0.316 µM, first compound 10 µM
[19] = second compound 1 µM, first compound 0.0316 µM
[20] = second compound 1 µM, first compound 0.1 µM
[21] = second compound 1 µM, first compound 0.316 µM
[22] = second compound 1 µM, first compound 1 µM
[23] = second compound 1 µM, first compound 3.16 µM
[24] = second compound 1 µM, first compound 10 µM
[25] = second compound 3.16 µM, first compound 0.0316 µM
[26] = second compound 3.16 µM, first compound 0.1 µM
[27] = second compound 3.16 µM, first compound 0.316 µM
[28] = second compound 3.16 µM, first compound 1 µM
[29] = second compound 3.16 µM, first compound 3.16 µM
[30] = second compound 3.16 µM, first compound 10 µM
[31] = second compound 10 µM, first compound 0.0316 µM
[32] = second compound 10 µM, first compound 0.1 µM
[33] = second compound 10 µM, first compound 0.316 µM
[34] = second compound 10 µM, first compound 1 µM
[35] = second compound 10 µM, first compound 3.16 µM
[36] = second compound 10 µM, first compound 10 µM
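Further: spheroids exposed to drugs for seven days before readout.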
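Wherever viability, T/C is given: percent viability relative to DMSO vehicle control taken as 100%.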

`CC(C)n1c(=O)n(C)c2cnc3cc(F)c(-c4ccc(OCCCN5CCCCC5)nc4)cc3c21` + COC1C(OC(N)=O)C(O)C(Oc2ccc3c(O)c(NC(=O)c4ccc(O)c(CC=C(C)C)c4)c(=O)oc3c2C)OC1(C)C was tested, and the pIC50 (second compound 0.0316 µM) was < 5.00, the pIC50 (second compound 0.1 µM) was < 5.00 and the pIC50 (second compound 0.316 µM) was < 5.00. The pIC50 (second compound 1 µM) was < 5.00, the pIC50 (second compound 3.16 µM) was < 5.00 and the pIC50 (second compound 10 µM) was < 5.00. The viability, T/C [1] was 92.3%, the viability, T/C [2] was 74% and the viability, T/C [3] was 86.2%. The viability, T/C [4] was 75.7%, the viability, T/C [5] was 67.5% and the viability, T/C [6] was 56.5%. The viability, T/C [7] was 85.2%, the viability, T/C [8] was 87.4% and the viability, T/C [9] was 87.5%. For the same compound, the viability, T/C [10] was 76.6%, the viability, T/C [11] was 64.3% and the viability, T/C [12] was 68.4%. The viability, T/C [13] was 99.1%, the viability, T/C [14] was 81.2% and the viability, T/C [15] was 84%. For the same compound, the viability, T/C [16] was 75.3%, the viability, T/C [17] was 67.5% and the viability, T/C [18] was 60.5%. It also gave a viability, T/C [19] of 85.5%, a viability, T/C [20] of 81.2% and a viability, T/C [21] of 77.4%. For the same compound, the viability, T/C [22] was 71.7%, the viability, T/C [23] was 69.8% and the viability, T/C [24] was 75.7%. It also gave a viability, T/C [25] of 78%, a viability, T/C [26] of 81.7% and a viability, T/C [27] of 77.7%. The viability, T/C [28] was 68.1%, the viability, T/C [29] was 77.7% and the viability, T/C [30] was 80.4%. It also gave a viability, T/C [31] of 80.2%, a viability, T/C [32] of 74.6% and a viability, T/C [33] of 79.7%. It also gave a viability, T/C [34] of 72.2%, a viability, T/C [35] of 80.7% and a viability, T/C [36] of 64.9%.

For `CCc1cc2c(N3CCc4c(cc(Cn5ccnc5)cc4-c4cn(C)nc4C(F)(F)F)C3=O)cc(C)nc2c(OC)n1` + COC1C(OC(N)=O)C(O)C(Oc2ccc3c(O)c(NC(=O)c4ccc(O)c(CC=C(C)C)c4)c(=O)oc3c2C)OC1(C)C, the pIC50 (second compound 0.0316 µM) was 5.91, the pIC50 (second compound 0.1 µM) was 5.67 and the pIC50 (second compound 0.316 µM) was 5.48. It also gave a pIC50 (second compound 1 µM) of 5.82, a pIC50 (second compound 3.16 µM) of 5.68 and a pIC50 (second compound 10 µM) of 5.50. It also gave a viability, T/C [1] of 68.2%, a viability, T/C [2] of 63.2% and a viability, T/C [3] of 53.7%. For the same compound, the viability, T/C [4] was 53%, the viability, T/C [5] was 45.5% and the viability, T/C [6] was 48.5%. For the same compound, the viability, T/C [7] was 62.2%, the viability, T/C [8] was 62.3% and the viability, T/C [9] was 58.1%. For the same compound, the viability, T/C [10] was 51.3%, the viability, T/C [11] was 49.4% and the viability, T/C [12] was 41.7%. It also gave a viability, T/C [13] of 68.5%, a viability, T/C [14] of 63.6% and a viability, T/C [15] of 63.8%. For the same compound, the viability, T/C [16] was 52.6%, the viability, T/C [17] was 49.2% and the viability, T/C [18] was 46.3%. It also gave a viability, T/C [19] of 66.4%, a viability, T/C [20] of 69.4% and a viability, T/C [21] of 58.1%. For the same compound, the viability, T/C [22] was 54.6%, the viability, T/C [23] was 43.8% and the viability, T/C [24] was 37.8%. It also gave a viability, T/C [25] of 68.4%, a viability, T/C [26] of 59.6% and a viability, T/C [27] of 50.1%. It also gave a viability, T/C [28] of 55.8%, a viability, T/C [29] of 50% and a viability, T/C [30] of 46.5%. It also gave a viability, T/C [31] of 77%, a viability, T/C [32] of 58.7% and a viability, T/C [33] of 61.5%. It also gave a viability, T/C [34] of 55.7%, a viability, T/C [35] of 54.9% and a viability, T/C [36] of 42.2%.
